One assay has as its target Human VPS34 (Homo sapiens (Human), UniProt Q8NEB9). The assay can be described thus: Human VPS34 enzyme assay (Adapta TR-FRET). The conditions noted are these: compound concentration 1.11 μM. Type of assay: biochemical. In general terms: TR-FRET usually uses a lanthanide donor and a delayed reading to cut background.
Human VPS34, sequence (Q8NEB9 whole entry): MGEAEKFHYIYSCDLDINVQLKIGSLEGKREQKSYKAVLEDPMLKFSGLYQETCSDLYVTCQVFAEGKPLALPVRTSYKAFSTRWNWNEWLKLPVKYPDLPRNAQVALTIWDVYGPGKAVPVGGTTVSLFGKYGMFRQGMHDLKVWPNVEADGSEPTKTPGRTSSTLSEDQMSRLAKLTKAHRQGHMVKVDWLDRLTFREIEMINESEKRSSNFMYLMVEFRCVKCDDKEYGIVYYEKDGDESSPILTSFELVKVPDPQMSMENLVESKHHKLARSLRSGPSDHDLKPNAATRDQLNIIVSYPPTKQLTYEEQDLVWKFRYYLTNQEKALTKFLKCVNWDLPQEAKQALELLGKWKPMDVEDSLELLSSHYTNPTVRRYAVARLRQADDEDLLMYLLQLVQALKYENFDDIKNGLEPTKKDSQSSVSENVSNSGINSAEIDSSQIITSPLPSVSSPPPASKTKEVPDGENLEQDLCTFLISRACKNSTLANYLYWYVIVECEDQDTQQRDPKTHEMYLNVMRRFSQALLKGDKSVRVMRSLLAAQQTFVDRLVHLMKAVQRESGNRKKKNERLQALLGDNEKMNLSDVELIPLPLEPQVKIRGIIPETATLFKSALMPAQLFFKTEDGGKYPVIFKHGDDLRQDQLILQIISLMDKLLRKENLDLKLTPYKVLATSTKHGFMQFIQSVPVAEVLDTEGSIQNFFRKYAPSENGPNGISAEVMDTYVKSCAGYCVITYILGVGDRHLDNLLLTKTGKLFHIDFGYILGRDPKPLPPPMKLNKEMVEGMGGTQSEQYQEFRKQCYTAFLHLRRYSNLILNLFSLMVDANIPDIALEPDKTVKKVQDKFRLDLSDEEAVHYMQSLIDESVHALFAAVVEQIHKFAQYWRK
As to `Cc1nc(Nc2cc(-c3cnc(Cl)c(NS(=O)(=O)c4ccc(F)cc4F)c3C)ccn2)ccc1C#N` [Compound I-238, N-{6-chloro-2′-[(5-cyano-6-methylpyridin-2-yl)amino]-4-methyl-3,4′-bipyridin-5-yl}-2,4-difluorobenzenesulfonamide], the “Percent Inhibition” value came to 93%.

Staying with this assay, now noted: compound concentration 1.11 μM; read-out: Percent Inhibition.
For orientation: inhibition means the drop in the measured response relative to a control, in per cent. Consider `CC(=O)Nc1cc(-c2cnc3ccn(CC4CC4)c3c2)ccn1` [Compound I-93], for which the inhibition at 1.11 µM is 86%.
On to `Cc1cnc(NC(=O)C2CC2)cc1-c1cnc(C)c(NS(=O)(=O)c2ccc(F)cc2F)c1` [Compound I-4, N-(5-{[(2,4-difluorophenyl)sulfonyl]amino}-5′,6-dimethyl-3,4′-bipyridin-2′-yl)cyclopropanecarboxamide], for which the inhibition at 1.11 µM is over 99%.
For `CC(=O)Nc1cc(-c2cnc(C)c(OS(=O)(=O)c3ccc(F)cc3F)c2)ccn1` [Compound I-478, 2′-acetamido-6-methyl-3,4′-bipyridin-5-yl 2,4-difluorobenzenesulfonate], the inhibition at 1.11 µM was determined as 84%.
`Cc1nccc(Nc2cc(-c3cnc(C)c(C(=O)N4CC(C)(C)C4)c3)ccn2)n1` [Compound I-495, (3,3-dimethylazetidin-1-yl){6-methyl-2′-[(2-methylpyrimidin-4-yl)amino]-3,4′-bipyridin-5-yl}methanone]: the inhibition at 1.11 µM came to 83%.
As to `CC(=O)Nc1cc(-c2cncc(N(CC3CC3)S(C)(=O)=O)c2)ccn1` [Compound I-202, N-{5-[(cyclopropylmethyl)(methylsulfonyl)amino]-3,4′-bipyridin-2′-yl}acetamide], the inhibition at 1.11 µM is over 99%.
Consider `CC(=O)Nc1cc(-c2cnc(N)c(C(=O)N3CCc4ccccc43)c2)ccn1` [Compound I-71, N-[6-amino-5-(2,3-dihydro-1H-indol-1-ylcarbonyl)-3,4′-bipyridin-2′-yl]acetamide], for which the inhibition at 1.11 µM was over 99%.
On to `CC(=O)Nc1cc(-c2cnc(C)c(NS(=O)(=O)c3ccc(C)cc3)c2)ccn1` [Compound I-80, N-(6-methyl-5-{[(4-methylphenyl)sulfonyl]amino}-3,4′-bipyridin-2′-yl)acetamide], for which the inhibition at 1.11 µM is over 99%.
As for `CNc1c(Cl)ncc(-c2ccnc(Nc3ccnc(C)n3)c2)c1C` [Compound I-256, 6-chloro-N~5~,4-dimethyl-N~2~′-(2-methylpyrimidin-4-yl)-3,4′-bipyridine-2′,5-diamine], the inhibition at 1.11 µM turned out to be 94%.
The same measure, in the same setting: as for `CC(=O)Nc1cc(-c2cnc(C)c(NS(=O)(=O)c3ccc(C)cc3Cl)c2)ccn1` [Compound I-128], the figure is over 99%; as for `CCS(=O)(=O)c1cc(-c2ccnc(NC(C)=O)c2)cnc1N` [Compound I-69, N-[6-amino-5-(ethylsulfonyl)-3,4′-bipyridin-2′-yl]acetamide], over 99%; as for `COC(=O)Nc1cc(-c2cnc(N)c(S(=O)(=O)C(C)C)c2)ccn1` [Compound I-34, methyl[6-amino-5-(isopropylsulfonyl)-3,4′-bipyridin-2′-yl]carbamate], over 99%.
On to `CC(=O)Nc1cc(-c2cncc(N3CCCN(C)S3(=O)=O)c2)ccn1` [Compound I-452, N-[5-(6-methyl-1,1-dioxido-1,2,6-thiadiazinan-2-yl)-3,4′-bipyridin-2′-yl]acetamide], for which the inhibition at 1.11 µM is over 99%.
Turning to `CC(=O)Nc1cc(-c2cnc(Cl)c(NS(=O)(=O)c3ccc(Cl)cc3F)c2C)ccn1` [Compound I-399, N-(6-chloro-5-{[(4-chloro-2-fluorophenyl)sulfonyl]amino}-4-methyl-3,4′-bipyridin-2′-yl)acetamide], the inhibition at 1.11 µM is 100%.
Regarding `CC(=O)Nc1cc(-c2cnc3cc[nH]c3c2)ccn1` [Compound I-17, N-[4-(1H-pyrrolo[3,2-b]pyridin-6-yl)pyridin-2-yl]acetamide], the inhibition at 1.11 µM is over 99%.
Take `CC(=O)Nc1cc(-c2cnc(N)c(C(=O)N3CCCC3)c2)ccn1` [Compound I-15, N-[6-amino-5-(pyrrolidin-1-ylcarbonyl)-3,4′-bipyridin-2′-yl]acetamide]: the inhibition at 1.11 µM was over 99%.
On to `CC(=O)Nc1cc(-c2cnc3[nH]cc(CN4CCCC4)c3c2)ccn1` [Compound I-54, N-{4-[3-(pyrrolidin-1-ylmethyl)-1H-pyrrolo[2,3-b]pyridin-5-yl]pyridin-2-yl}acetamide], for which the inhibition at 1.11 µM was 83%.
Take `Cc1nccc(Nc2cc(-c3cncc(C(=O)N4CC(F)(F)C4)c3)ccn2)n1` [Compound I-408, (3,3-difluoroazetidin-1-yl){2′-[(2-methylpyrimidin-4-yl)amino]-3,4′-bipyridin-5-yl}methanone]: the inhibition at 1.11 µM was over 99%.
As for `CC(=O)Nc1cc(-c2cnc(C)c(NS(=O)(=O)N(C)C)c2C)ccn1` [Compound I-260, N-{5-[(dimethylsulfamoyl)amino]-4,6-dimethyl-3,4′-bipyridin-2′-yl}acetamide], the inhibition at 1.11 µM was 91%.
Take `CC(=O)Nc1cc(-c2cncc(S(=O)(=O)Nc3ccccc3)c2)ccn1` [Compound I-459, N-[5-(phenylsulfamoyl)-3,4′-bipyridin-2′-yl]acetamide]: the inhibition at 1.11 µM is 96%.
On the same count and under the same terms, as for `CC(=O)Nc1cc(-c2cnc(N)c(C(=O)N3CCC(F)(F)C3)c2)ccn1` [Compound I-60, N-{6-amino-5-[(3,3-difluoropyrrolidin-1-yl)carbonyl]-3,4′-bipyridin-2′-yl}acetamide], the figure is over 99%.
For the compound `CC(=O)Nc1cc(-c2cnc(C)c(NS(=O)(=O)c3c(F)cccc3F)c2)ccn1` [Compound I-150, N-(5-{[(2,6-difluorophenyl)sulfonyl]amino}-6-methyl-3,4′-bipyridin-2′-yl)acetamide], the inhibition at 1.11 µM was over 99%.
The same measure, in the same setting: the figure for `COC(=O)Nc1cc(-c2cnc3ccn(CC4CC4)c3c2)ccn1` [Compound I-42, Methyl {4-[1-(cyclopropylmethyl)-1H-pyrrolo[3,2-b]pyridin-6-yl]pyridin-2-yl}carbamate] is over 99%; for `CC(=O)Nc1cc(-c2cnc(C)c(N3CCCNS3(=O)=O)c2)ccn1` [Compound I-387, N-[5-(1,1-dioxido-1,2,6-thiadiazinan-2-yl)-6-methyl-3,4′-bipyridin-2′-yl]acetamide] it is over 99%; for `CC(=O)Nc1cc(-c2cncc(NC(=O)Cc3ccccc3)c2)ccn1` [Compound I-106, N-(2′-acetamido-3,4′-bipyridin-5-yl)-2-phenylacetamide] it is 64%.
On to `CC(=O)Nc1cc(-c2cnc(C)c(S(=O)(=O)Nc3ccc(F)cc3F)c2)ccn1` [Compound I-353, N-(5-(N-(2,4-difluorophenyl)sulfamoyl)-6-methyl-[3,4′-bipyridin]-2′-yl)acetamide], for which the inhibition at 1.11 µM is over 99%.
Consider `Cc1nccc(Nc2cc(-c3cnc(C)c(NS(=O)(=O)N(C)C)c3)ccn2)n1` [Compound I-286, N,N-dimethyl-N-{6-methyl-2′-[(2-methylpyrimidin-4-yl)amino]-3,4′-bipyridin-5-yl}sulfuric diamide], for which the inhibition at 1.11 µM was over 99%.
As for `CC(=O)Nc1cc(-c2cnc(N)c(C(=O)N3Cc4ccccc4C3)c2)ccn1` [Compound I-125, N-[6-amino-5-(1,3-dihydro-2H-isoindoI-2-ylcarbonyl)-3,4′-bipyridin-2′-yl]acetamide], the inhibition at 1.11 µM was over 99%.
For the compound `COC(=O)Nc1cc(-c2cncc(C(=O)C3CC3)c2)ccn1` [Compound I-180, methyl[5-(cyclopropylcarbonyl)-3,4′-bipyridin-2′-yl]carbamate], the inhibition at 1.11 µM is over 99%.
Turning to `CC(=O)Nc1cc(-c2cnc(C)c(C(=O)N(C)c3ccc(F)cc3F)c2)ccn1` [Compound I-485, 2′-acetamido-N-(2,4-difluorophenyl)-N,6-dimethyl-3,4′-bipyridine-5-carboxamide], the inhibition at 1.11 µM was determined as 100%.
Still for that read-out and setting: as for `Cc1nccc(Nc2cc(-c3cnc(C)c(C(=O)N4CC5(COC5)C4)c3)ccn2)n1` [Compound I-415, {6-methyl-2′-[(2-methylpyrimidin-4-yl)amino]-3,4′-bipyridin-5-yl}(2-oxa-6-azaspiro[3.3]hept-6-yl)methanone], the figure is 82%; as for `CC(=O)Nc1cc(-c2cnc(C)c(OS(=O)(=O)N(C)C)c2)ccn1` [Compound I-359, 2′-acetamido-6-methyl-3,4′-bipyridin-5-yl dimethylsulfamate], over 99%; as for `CC(=O)Nc1cc(-c2cnc(N)c(S(=O)(=O)CCc3ccccc3)c2)ccn1` [Compound I-126, N-{6-amino-5-[(2-phenylethyl)sulfonyl]-3,4′-bipyridin-2′-yl}acetamide], over 99%.
As for `CNc1ncc(-c2ccnc(NC(C)=O)c2)cc1C(=O)NC12CC(C1)C2` [Compound I-160, 2′-acetamido-N-(bicyclo[1.1.1]pent-1-yl)-6-(methylamino)-3,4′-bipyridine-5-carboxamide], the inhibition at 1.11 µM was over 99%.
`CN(C)S(=O)(=O)c1cc(-c2ccnc(Nc3ncco3)c2)cnc1N` [Compound I-166, 6-amino-N,N-dimethyl-2′-(1,3-oxazol-2-ylamino)-3,4′-bipyridine-5-sulfonamide]: the inhibition at 1.11 µM is over 99%.
On the same count and under the same terms, as for `CC(=O)Nc1cc(-c2cnc3[nH]c(C)nc3c2)ccn1` [Compound I-66, N-[4-(2-methyl-3H-imidazo[4,5-b]pyridin-6-yl)pyridin-2-yl]acetamide], the figure is 88%; as for `CC(=O)Nc1cc(-c2cnc3ccn(S(=O)(=O)C4CC4)c3c2)ccn1` [Compound I-199, N-{4-[1-(cyclopropylsulfonyl)-1H-pyrrolo[3,2-b]pyridin-6-yl]pyridin-2-yl}acetamide], over 99%; as for `COc1nccc(Nc2cc(-c3cnc(N)c(C(=O)N(C)C45CC(C4)C5)c3)ccn2)n1` [Compound I-230, 6-amino-N-(bicyclo[1.1.1]pent-1-yl)-2′-((2-methoxypyrimidin-4-yl)amino)-N-methyl-[3,4′-bipyridine]-5-carboxamide], 97%.
In the case of `CC(=O)Nc1cc(-c2cnc(N)c(S(=O)(=O)Nc3ccccc3)c2)ccn1` [Compound I-43, N-[6-amino-5-(phenylsulfamoyl)-3,4′-bipyridin-2′-yl]acetamide], the inhibition at 1.11 µM was over 99%.

The values above are taken from US9802960B2 (MILLENNIUM PHARMACEUTICALS, INC., priority 2014, dated 2017).
